According to patent US12312337B2, “Compounds and methods for treating cancer” (ANTIDOTE IP HOLDINGS, LLC, priority 2019, dated 2025):
pIC50, pKd: −log10 of the molar value.

system: AhR; assay: not given; conditions: binding to the AhR; acts as an agonist; read-out: apparent Kd; cited from earlier work

For `Nc1ccccc1C(=O)CC(N)C(=O)O` (stereo not drawn) [Kynurenine], the pKd is given as ~5.40.

target: T1, human AhR (Homo sapiens, UniProt P35869); assay: INDIGO AhR Reporter Assay (luciferase reporter cells, antagonist mode); format: cell-based; conditions: antagonist mode with 50 nM of VAF347 (AhR agonist); 22-24 hours incubation; luciferase RLU
T1 construct: INDIGO's Aryl Hydrocarbon Receptor (AhR) Reporter Cells include the luciferase reporter gene functionally linked to an AhR-responsive promoter
T1 sequence (P35869 11-848): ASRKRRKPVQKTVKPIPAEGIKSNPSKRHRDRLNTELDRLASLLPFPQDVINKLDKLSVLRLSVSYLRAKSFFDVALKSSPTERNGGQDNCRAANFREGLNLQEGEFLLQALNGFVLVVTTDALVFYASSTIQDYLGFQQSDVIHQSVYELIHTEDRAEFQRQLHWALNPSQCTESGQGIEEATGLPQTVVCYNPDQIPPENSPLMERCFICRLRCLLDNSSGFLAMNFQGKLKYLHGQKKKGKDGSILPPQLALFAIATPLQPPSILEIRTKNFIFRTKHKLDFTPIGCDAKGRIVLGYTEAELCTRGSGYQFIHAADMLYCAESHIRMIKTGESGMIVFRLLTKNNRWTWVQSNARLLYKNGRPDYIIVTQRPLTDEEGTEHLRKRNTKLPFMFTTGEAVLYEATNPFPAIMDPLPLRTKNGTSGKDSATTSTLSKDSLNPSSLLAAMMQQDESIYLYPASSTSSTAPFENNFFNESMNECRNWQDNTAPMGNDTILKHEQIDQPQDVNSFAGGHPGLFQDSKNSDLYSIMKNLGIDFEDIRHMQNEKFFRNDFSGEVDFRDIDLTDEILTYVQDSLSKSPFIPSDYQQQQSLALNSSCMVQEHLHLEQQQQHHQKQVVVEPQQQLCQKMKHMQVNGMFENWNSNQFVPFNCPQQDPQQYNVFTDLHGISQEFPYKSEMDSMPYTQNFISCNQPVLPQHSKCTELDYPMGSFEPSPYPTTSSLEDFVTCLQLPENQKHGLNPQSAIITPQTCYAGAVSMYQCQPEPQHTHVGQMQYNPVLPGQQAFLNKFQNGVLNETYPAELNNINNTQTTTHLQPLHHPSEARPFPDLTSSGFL
Description: INDIGO's Aryl Hydrocarbon Receptor (AhR) Reporter Cells include the luciferase reporter gene functionally linked to an AhR-responsive promoter. Thus, quantifying changes in luciferase expression in the treated reporter cells provides a sensitive surrogate measure of the changes in AhR activity. The principle application of this reporter assay is in the screening of test samples to quantify any functional activity, either agonist or antagonist, that they may exert against human AhR. Reporter Cells incorporate the cDNA encoding beetle luciferase, a 62 kD protein originating from the North American firefly (Photinus pyralis). Luciferase catalyzes the mono-oxidation of D-luciferin in a Mg^2+-dependent reaction that consumes 02 and ATP as co-substrates, and yields as products oxyluciferin, AMP, PPi, CO2, and photon emission. Luminescence intensity of the reaction is quantified using a luminometer, and is reported in terms of Relative Light Units (RLU's). In brief, 200 μl of Reporter Cells was dispensed into wells of the assay plate and pre-incubated for 4-6 hours. Following the pre-incubation period, culture media were discarded and 200 µl/well of the prepared 1×-concentration treatment media were added. Following 22-24 hours of incubation, treatment media were discarded and Luciferase Detection Reagent was added. The intensity of light emission (in units of “Relative Light Units” (RLU)) from each assay well was quantified using a plate-reading luminometer. The assay was run as a competitive binding assay in the antagonist mode with 50 nM of VAF347, a known AhR agonist.
In Table 4, IC50 values are reported as A, B, C, or D. A represents an IC50 value of less than 100 nM. B represents an IC50 value of equal or greater than 100 nM and less than 500 nM. C represents an IC50 value of equal or greater than 500 nM and less than 1 μM. D represents an IC50 value of equal or greater than 1 μM.

First: Cn1nc(C(F)(F)F)cc1NC(=O)c1ccc2cc(-c3cccnc3)cnc2c1 [Compound 77, N-[1-methyl-3-(trifluoromethyl)-1H-pyrazol-5-yl]-3-(pyridin-3-yl)quinoline-7-carboxamide]
Second: Cn1nc(C(F)(F)F)cc1NC(=O)c1ccc2cc(-c3ccncc3)cnc2c1 [Compound 78, N-[1-methyl-3-(trifluoromethyl)-1-pyrazol-yl]-3-(pyridin-4-yl)quinoline-7-carboxamide]
The pIC50 of the first is lower: < 6.00 for the first, 6.30 to 7.00 for the second. The second is the more potent here.

First: O=C(Nc1ccc(C(F)(F)F)nc1)c1ccc2c(N3CCOCC3)ccnc2c1 [Compound 80, 4-morpholino-N-(6-(trifluoromethyl)pyridin-3-yl)quinoline-7-carboxamide]
Second: O=C(Nc1ccc(C(F)(F)F)nc1)c1ccc2cc(-c3nccs3)cnc2c1 [Compound 83, 3-(thiazol-2-yl)-N-(6-(trifluoromethyl)pyridin-3-yl)quinoline-7-carboxamide]
The pIC50 of the first is lower: < 6.00 for the first, 6.00 to 6.30 for the second. The second is the more potent here.

Compared with `Cc1ccccc1-c1cnc2cc(C(=O)Nc3ccc(C(F)(F)F)nc3)ccc2c1` [Compound 81, 3-(o-tolyl)-N-(6-(trifluoromethyl)pyridin-3-yl)quinoline-7-carboxamide], `Cc1ccccc1-c1cc(NC(=O)c2ccc3cc(-c4ccc(F)cc4F)cnc3c2)n(C)n1` [Compound 96, 3-(2,4-difluorophenyl)-N-(1-methyl-3-(o-tolyl)-1H-pyrazol-5-yl)quinoline-7-carboxamide] is higher in pIC50: 6.30 to 7.00 for the first, > 7.00 for the second.

First: Cn1cc(-c2ccccc2)nc1NC(=O)c1cc2ncccc2cc1Cl [Compound 90, 6-chloro-N-(1-methyl-4-phenyl-1H-imidazol-2-yl)quinoline-7-carboxamide]
Second: Cn1nc(-c2ccccc2)cc1NC(=O)c1ccc2cc(-c3ccncc3F)cnc2c1 [Compound 125, 3-(3-fluoropyridin-4-yl)-N-(1-methyl-3-phenyl-1H-pyrazol-5-yl) quinoline-7-carboxamide]
The pIC50 of the first is lower: 6.00 to 6.30 for the first, 6.30 to 7.00 for the second.

`Cn1nc(C(F)(F)F)cc1NC(=O)c1ccc2cc(-c3nccs3)cnc2c1` [Compound 93, N-(1-methyl-3-(trifluoromethyl)-1H-pyrazol-5-yl)-3-(thiazol-2-yl)quinoline-7-carboxamide] and `Cn1nc(C(F)(F)F)cc1NC(=O)c1ccc2cc(-c3ccccn3)cnc2c1` [Compound 100, N-(1-methyl-3-(trifluoromethyl)-1H-pyrazol-5-yl)-3-(pyridine-2-yl)quinoline-7-carboxamide] cannot be ordered by pIC50: > 7.00 for the first, > 7.00 for the second.

`Cc1ccccc1-c1cc(NC(=O)c2ccc3cc(-c4ccc(F)cc4)cnc3c2)n(C)n1` [Compound 95, 3-(4-fluorophenyl)-N-(1-methyl-3-(o-tolyl)-1H-pyrazol-5-yl)quinoline-7-carboxamide] and `Cc1ccccc1-c1cc(NC(=O)c2ccc3cc(-c4cccs4)cnc3c2)n(C)n1` [Compound 97, N-(1-methyl-3-(o-tolyl)-1H-pyrazol-5-yl)-3-(thiophen-2-yl)quinoline-7-carboxamide] cannot be ordered by pIC50: > 7.00 for the first, > 7.00 for the second.

First: Cn1nc(C(F)(F)F)cc1NC(=O)c1ccc2cc(-c3ccncc3F)cnc2c1 [Compound 98, 3-(3-fluoropyridin-4-yl)-N-[1-methyl-3-(trifluoromethyl)-1H-pyrazol-5-yl]quinoline-7-carboxamide]
Second: Cn1nc(C(F)(F)F)cc1NC(=O)c1ccc2cc(-c3ccc(F)cn3)cnc2c1 [Compound 101, 3-(5-fluoropyridin-2-yl)-N-(1-methyl-3-(trifluoromethyl)-1H-pyrazol-5-yl)quinoline-7-carboxamide]
The pIC50 of the first is lower: 6.30 to 7.00 for the first, > 7.00 for the second. The second is the more potent here.

Compared with `CC(C)Oc1ccnc2cc(C(=O)Nc3cc(C(F)(F)F)nn3C)ccc12` [Compound 99, 4-Isopropoxy-N-[1-methyl-3-(trifluoromethyl)-1H-pyrazol-5-yl]quinoline-7-carboxamide], `Cn1nc(C(F)(F)F)cc1NC(=O)c1ccc2cc(-c3ncc(F)cn3)cnc2c1` [Compound 123, 3-(5-fluoropyrimidin-2-yl)-N-[1-methyl-3-(trifluoromethyl)-1H-pyrazol-5-yl]quinoline-7-carboxamide] is higher in pIC50: < 6.00 for the first, > 7.00 for the second. The second is the more potent here.

`Cn1nc(C(F)(F)F)cc1NC(=O)c1ccc2cc(-c3ncc(F)cc3F)cnc2c1` [Compound 124, 3-(3,5-difluoropyridin-2-yl)-N-[l-methyl-3-(trifluoromethyl)-1H-pyrazol-5-yl]quinoline-7-carboxamide] and `Cn1nc(-c2ccccc2)cc1NC(=O)c1ccc2cc(-c3ccc(F)cn3)cnc2c1` [Compound 128, 3-(5-fluoropyridin-2-yl)-N-(1-methyl-3-phenyl-1H-pyrazol-5-yl) quinoline-7-carboxamide] cannot be ordered by pIC50: > 7.00 for the first, > 7.00 for the second.

`CCN(CC)S(=O)(=O)c1cc(NC(=O)c2cc3cc(-c4ccc(F)cc4)cnc3s2)ccc1Cl` [Compound 141, N-[4-chloro-3-(N,N-diethylsulfamoyl)phenyl]-5-(4-fluorophenyl)-thieno[2,3-b]pyridine-2-carboxamide] and `CN(C)S(=O)(=O)c1cc(NC(=O)c2cc3cc(-c4ccc(F)cc4)cnc3s2)ccc1Cl` [Compound 148, N-[4-chloro-3-(N,N-dimethylsulfamoyl)phenyl]-5-(4-fluorophenyl)-thieno[2,3-b]pyridine-2-carboxamide] fall in the same range of pIC50: 6.30 to 7.00 for the first, 6.30 to 7.00 for the second.

`CCN(CC)S(=O)(=O)c1cc(NC(=O)c2cc3cc(-c4ccncc4)cnc3s2)ccc1Cl` [Compound 142, N-[4-chloro-3-(N,N-diethylsulfamoyl)phenyl]-5-(pyridin-4-yl)-thieno[2,3-b]pyridine-2-carboxamide] and `CCN(CC)S(=O)(=O)c1cc(NC(=O)c2cc3cc(-c4ccncc4F)cnc3s2)ccc1Cl` [Compound 145, N-[4-chloro-3-(N,N-diethylsulfamoyl)phenyl]-5-(3-fluoropyridin-4-yl)-thieno[2,3-b]pyridine-2-carboxamide] fall in the same range of pIC50: 6.30 to 7.00 for the first, 6.30 to 7.00 for the second.

First: CCN(CC)S(=O)(=O)c1cc(NC(=O)c2cc3cc(-c4ccccn4)cnc3s2)ccc1Cl [Compound 144, N-[4-chloro-3-(N,N-diethylsulfamoyl)phenyl]-5-(pyridin-2-yl)-thieno[2,3-b]pyridine-2-carboxamide]
Second: CCN(CC)S(=O)(=O)c1cc(NC(=O)c2cc3cc(-c4ccc(F)cn4)cnc3s2)ccc1Cl [Compound 151, N-[4-chloro-3-(N,N-diethylsulfamoyl)phenyl]-5-(5-fluoropyridin-2-yl)-thieno[2,3-b]pyridine-2-carboxamide]
The pIC50 of the first is higher: 6.00 to 6.30 for the first, < 6.00 for the second. The first is the more potent here.

`CN(C)S(=O)(=O)c1cc(NC(=O)c2cc3cc(-c4ccncc4F)cnc3s2)ccc1Cl` [Compound 153, N-[4-chloro-3-(N,N-dimethylsulfamoyl)phenyl]-5-(3-fluoropyridin-4-yl)-thieno[2,3-b]pyridine-2-carboxamide] and `CN1CCN(S(=O)(=O)c2cc(NC(=O)c3ccc4c(c3)NC(=O)CO4)ccc2Cl)CC1` [Compound 172] fall in the same range of pIC50: 6.00 to 6.30 for the first, 6.00 to 6.30 for the second.
